{"source": "patent US20040152685A1", "about": "“Agents and methods for the prevention of initial onset and recurrence of existing cancers” (priority 2001, published 2004)", "type_in_all_cases": "cell-based", "key": {"[1]": {"tested_on": "prostate cancer cell lines (LNCaP, DU145) and brain and/or nervous system cancer cell line (DAOY)", "assay": "Induction of apoptosis in prostate and brain/nervous system cancer cell lines", "settings": "DU145, DAOY cells", "excerpt": "(§1) In a multitude of experiments, using prostate cancer cell lines (both androgen-dependent (LNCaP), and androgen-independent (DU145) cells), and a brain and/or nervous system cancer cell line (DAOY), the present inventors have studied the effects of 2-ME and 16-ES on cell proliferation and the induction of apoptosis, in a number of ways."}, "LNCaP cells": {"tested_on": "LNCaP cells", "assay": "Cell growth of LNCaP prostate cancer cells after treatment", "settings": "for inhibition of growth of LNCaP cells: 72 hours of treatment, FIG. 7", "method": "Cells were treated with either eugenol (0.25, 0.5, 0.75 or 1 mM) or 2-ME (0.5, 1, 2 or 3 mM) or both (0.25, 0.5, 0.75 or 1 mM of eugenol along with 0.5 mM of 2-ME). Cell growth was measured following 72 hours of treatment as described above."}, "[2]": {"tested_on": "prostate cancer cell lines (LNCaP, DU145) and brain and/or nervous system cancer cell line (DAOY)", "assay": "Cell proliferation of prostate and brain/nervous system cancer cell lines", "settings": "DU145, DAOY cells", "excerpt": "as §1"}, "DU145 cells": {"tested_on": "DU145 cells", "assay": "Cell growth of DU145 prostate cancer cells after treatment", "settings": "Homo sapiens, DU-145, FIG. 6, read-out: concentration necessary to see 50% inhibition of growth"}}, "note": "Entries after “also recorded” stand apart in the source; their conditions may differ."}
{"compound": "COc1cc2c(cc1O)CC[C@@H]1[C@@H]2CC[C@]2(C)[C@@H](O)CC[C@@H]12", "note": "[2-ME, 2-methoxyoestradiol]", "values": [{"measurement": "pro-apoptotic effects", "setting": "[1]", "result": "has pro-apoptotic effects"}, {"measurement": "inhibition of growth of LNCaP cells", "setting": "LNCaP cells; 0.5 mM of 2-ME", "result": "about 20%"}, {"measurement": "inhibition of cancerous cell growth", "setting": "[2]", "result": "significantly inhibits cancerous cell growth; also recorded: inhibits the growth"}]}
{"compound": "C[C@]12CC[C@@H]3c4ccc(O)cc4CC[C@H]3[C@@H]1C[C@H](O)[C@@H]2O", "note": "[16-ES, 16-epiestriol]", "values": [{"measurement": "pro-apoptotic effects", "setting": "[1]", "result": "does not"}, {"measurement": "inhibition of cancerous cell growth", "setting": "[2]", "result": "does not"}]}
{"compound": "C=CCc1ccc(O)c(OC)c1", "note": "[eugenol]", "values": [{"measurement": "inhibition of growth of LNCaP cells", "setting": "LNCaP cells; 0.25 mM of eugenol", "result": "about 30%"}, {"measurement": "IC50", "setting": "LNCaP cells; Homo sapiens, LNCaP, read-out: concentration necessary to see 50% inhibition of growth", "result": "~750", "unit": "µM"}, {"measurement": "IC50", "setting": "DU145 cells", "result": "> 2000", "unit": "µM"}]}
